Laboratory results reported in ChEMBL document CHEMBL4024726, “An integrated approach towards the discovery of novel non-nucleoside Leishmania major pteridine reductase 1 inhibitors” (Eur J Med Chem, 2017).
Calls of active or inactive are those of the source. No cut-off for these calls is given here.

Legend:
[1] = target: T1, Pteridine reductase 1 (Leishmania major) (UniProt Q01782); assay: Binding affinity to Leishmania major PTR1 BL21(DE3) assessed as change in melting temperature at 50 uM by SYPRO orange dye based RT-PCR analysis
T1 sequence (whole entry): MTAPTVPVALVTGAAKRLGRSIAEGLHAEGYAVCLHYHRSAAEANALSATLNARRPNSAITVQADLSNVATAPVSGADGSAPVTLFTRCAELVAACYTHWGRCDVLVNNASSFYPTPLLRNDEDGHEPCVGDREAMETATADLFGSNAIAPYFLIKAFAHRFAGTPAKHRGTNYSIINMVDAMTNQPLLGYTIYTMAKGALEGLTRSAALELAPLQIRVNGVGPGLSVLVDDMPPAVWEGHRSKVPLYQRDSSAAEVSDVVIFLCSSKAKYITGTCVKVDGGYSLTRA

[2] = target: T1, Pteridine reductase 1 (Leishmania major); assay: Binding affinity to Leishmania major PTR1 BL21(DE3) assessed as change in melting temperature by SYPRO orange dye based RT-PCR analysis
[3] = target: T1, Pteridine reductase 1 (Leishmania major); assay: Competitive inhibition of Leishmania major PTR1 assessed as decrease in thermal shift stabilization at 1 mM in presence of varying levels of biopterin and constant NADPH level by spectrofluorimetric method
[4] = target: T1, Pteridine reductase 1 (Leishmania major); assay: Competitive inhibition of Leishmania major PTR1 assessed as decrease in thermal shift stabilization at 1 mM in presence of saturating concentration of biopterin and varying levels of NADPH by spectrofluorimetric method
[5] = target: T1, Pteridine reductase 1 (Leishmania major); assay: Inhibition of Leishmania major PTR1 at 50 uM using biopterin as substrate and NADPH as cofactor by spectrofluorimetric method relative to control
Pteridine reductase 1 = target: T2, Pteridine reductase 1 (Leishmania major, UniProt Q01782); assay: Inhibition of Leishmania major PTR1 using biopterin as substrate and NADPH as cofactor by spectrofluorimetric method
T2 sequence (Q01782 whole entry): T1 sequence (whole entry)

[6] = target: T1, Pteridine reductase 1 (Leishmania major); assay: Noncompetitive inhibition of Leishmania major PTR1 at 1 mM in presence of saturating concentration of biopterin and varying levels of NADPH by spectrofluorimetric method
[7] = target: T1, Pteridine reductase 1 (Leishmania major); assay: Noncompetitive inhibition of Leishmania major PTR1 at 1 mM in presence of varying levels of biopterin and constant NADPH level by spectrofluorimetric method

| ΔTm [1] [°C] | Activity [2] | inhibition [3] | inhibition [4] | inhibition [5] [%] | IC50 (Pteridine reductase 1) [µM] | inhibition [6] | inhibition [7] | Compound |
| --- | --- | --- | --- | --- | --- | --- | --- | --- |
| 1.02 | Dose-dependent effect | Active | Active | > 50 | 32.3 |  |  | Cc1sc2ncnc(N/N=C/c3ccccc3)c2c1C |
| 0.91 | Dose-dependent effect |  |  |  |  | Active | Active | CC(N(C)Cc1nc2ccccc2c(=O)[nH]1)C(C)(C)C (stereo not given) |
